This note sets out measurements from patent US11878970B2, “Allosteric chromenone inhibitors of phosphoinositide 3-kinase (PI3K) for the treatment of disease” (Petra Pharma Corporation, priority 2021, dated 2024).

Assay [1] has as its target T1, PI3K-α (PIK3CA) H1047R mutant, p110α/p85α complex (Homo sapiens, UniProt P42336, H1047R).
T1 construct: Recombinant, catalytically active human full length PIK3KA Wild-type and H1047R mutant; 6×His (N); purchased EMD Millipore Sigma 14-792M
Put plainly: PI3K-alpha kinase (PIK3CA) biochemical activity, ADP-Glo, H1047R mutant. The note with it: Soy PI lipid substrate. An excerpt:
(§1) PI3K-Alpha Kinase (PIK3CA) Activity, Wild-Type and H1047R Mutant and Determining IC50 Values for Inhibitors
(§2) Recombinant, catalytically active human full length PIK3KA Wild-type and H1047R mutant were purchased as 1:1 complex of N-terminal 6×his tagged p110α (catalytic) and untagged p85α (regulatory subunit) from EMD Millipore Sigma (cat. no. 14-602M and 14-792M, respectively). PIP2diC8 (Avanti Polar Lipids Inc., cat. no. 850185) or Soy PI (Avanti Polar Lipids Inc., cat. No. 840044P) was used as lipid substrate. PIP2diC8 or PI lyophilized powder was dissolved in milliQ water to a concentration of 1 mM just before use. 10 mM stock compounds in DMSO were serially diluted 1:3 to generate a 10-point curve and plated using an acoustic liquid handler system (Echo 550 series instrument, Labcyte). A 10× intermediate compound plate (200 uM starting compound concentration and 10% DMSO) was prepared before starting the reaction. A typical reaction mixture (50 uL) comprised 40 mM HEPES buffer, pH 7.4, 25 mM MgCl2, 0.01% v/v triton-X-100, 1% v/v DMSO, 20 mM NaCl, 1-5 nM WT or H1047R PI3K protein, 20 uM ATP, and 50 uM PIP2diC8 or Soy PI. 1% DMSO buffer alone without test compound was employed as MAX control (full activity in the absence of any inhibitor), and no enzyme control was used to determine the level of background Adenosine 5′-diphosphate (ADP) (MIN control). First, Wild-type (WT) and H1047R mutant protein in kinase buffer with all components except ATP were incubated with or without compound at 27° C. for 1 h. After the pre-incubation, the reaction was initiated by the addition of 20 uL of 50 uM ATP (20 uM final concentration). The reaction was allowed to proceed until about 10% conversion of ATP (2 uM ADP) at 27° C. After that time, 5 uL of reaction was mixed with 5 uL of ADP-Kinase Glo Reagent (ADP-Glo Kinase assay kit, Promega cat. no. V9102) supplemented with MgCl2 10 mM to stop the reaction and deplete the remaining ATP for 40 min at room temperature. Then, 10 uL of Kinase Detection Reagent (ADP-Glo Kinase assay kit, Promega cat. no. V9102) was added to simultaneously convert ADP to ATP and allow the newly synthesized ATP to be measured using a luciferase/luciferin reaction. After 30 min at room temperature the light generated was measured using a luminometer (EnVision plate reader, Perkin Elmer). Process data through Genedata-Screener tool. Relative IC50 values are determined using luminescence units by calculating percent inhibition with respect to on-plate “MIN” and “MAX” controls. Data was analyzed using a 4-parameter nonlinear logistic equation (four-parameter logistic concentration-response curve): Y=bot+[(top−bot)/1+(x/IC50)slope] where Y=% inhibition, X=concentration yielding y % inhibition, Bottom=minimum value of y attained by curve, Top=maximum value of y attained by curve and Slope=steepness of curve at IC50. % Inh=[(median Max−x/median Max−median Min)]·100 IC50: concentration of compound that reduces a given response (ligand binding, enzyme response) by 50%. IC50 relative: concentration giving half the compound's maximum response.

In assay [2] the target is T2, PI3K-α (PIK3CA) wild-type (WT), p110α/p85α complex (Homo sapiens, UniProt P42336).
T2 construct: Recombinant, catalytically active human full length PIK3KA Wild-type and H1047R mutant; 6×His (N); purchased EMD Millipore Sigma 14-602M
The assay can be described thus: PI3K-alpha kinase (PIK3CA) biochemical activity, ADP-Glo, wild-type. The note with it: Soy PI lipid substrate.
Excerpt: as §1, §2

Broadly, the pIC50 is −log10 of the IC50, conventionally taken in molar units.

pIC50: −log10 of the molar value. Bounds are passed on as bounds.

T1 sequence (P42336 whole entry H1047R): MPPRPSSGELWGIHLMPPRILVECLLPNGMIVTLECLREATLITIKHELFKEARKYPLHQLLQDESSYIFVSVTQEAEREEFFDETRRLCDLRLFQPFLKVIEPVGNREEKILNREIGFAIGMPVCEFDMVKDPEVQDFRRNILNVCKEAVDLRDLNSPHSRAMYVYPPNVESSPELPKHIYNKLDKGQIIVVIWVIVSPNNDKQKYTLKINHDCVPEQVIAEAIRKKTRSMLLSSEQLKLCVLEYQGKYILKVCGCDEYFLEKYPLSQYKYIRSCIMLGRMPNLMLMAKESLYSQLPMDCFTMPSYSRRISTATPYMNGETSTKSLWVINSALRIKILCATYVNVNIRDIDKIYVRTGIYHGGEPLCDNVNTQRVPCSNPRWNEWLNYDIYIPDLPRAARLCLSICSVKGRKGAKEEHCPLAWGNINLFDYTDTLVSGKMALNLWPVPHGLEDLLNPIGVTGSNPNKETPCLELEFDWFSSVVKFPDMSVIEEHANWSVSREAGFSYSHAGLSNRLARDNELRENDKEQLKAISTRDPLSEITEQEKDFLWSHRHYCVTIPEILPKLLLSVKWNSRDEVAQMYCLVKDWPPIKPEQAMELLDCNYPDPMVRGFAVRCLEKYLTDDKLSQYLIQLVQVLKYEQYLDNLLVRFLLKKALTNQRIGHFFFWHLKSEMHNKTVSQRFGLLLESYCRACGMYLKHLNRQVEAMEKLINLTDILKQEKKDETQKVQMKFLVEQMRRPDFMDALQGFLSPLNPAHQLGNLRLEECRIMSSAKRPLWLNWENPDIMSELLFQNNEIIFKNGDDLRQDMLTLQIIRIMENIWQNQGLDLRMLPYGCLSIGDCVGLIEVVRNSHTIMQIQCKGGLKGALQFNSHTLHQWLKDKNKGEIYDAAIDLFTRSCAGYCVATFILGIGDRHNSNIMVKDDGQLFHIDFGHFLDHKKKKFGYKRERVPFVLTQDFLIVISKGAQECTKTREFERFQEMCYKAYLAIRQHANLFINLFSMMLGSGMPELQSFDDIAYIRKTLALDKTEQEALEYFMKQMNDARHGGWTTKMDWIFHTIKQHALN
T1 sequence (P27986 whole entry partner): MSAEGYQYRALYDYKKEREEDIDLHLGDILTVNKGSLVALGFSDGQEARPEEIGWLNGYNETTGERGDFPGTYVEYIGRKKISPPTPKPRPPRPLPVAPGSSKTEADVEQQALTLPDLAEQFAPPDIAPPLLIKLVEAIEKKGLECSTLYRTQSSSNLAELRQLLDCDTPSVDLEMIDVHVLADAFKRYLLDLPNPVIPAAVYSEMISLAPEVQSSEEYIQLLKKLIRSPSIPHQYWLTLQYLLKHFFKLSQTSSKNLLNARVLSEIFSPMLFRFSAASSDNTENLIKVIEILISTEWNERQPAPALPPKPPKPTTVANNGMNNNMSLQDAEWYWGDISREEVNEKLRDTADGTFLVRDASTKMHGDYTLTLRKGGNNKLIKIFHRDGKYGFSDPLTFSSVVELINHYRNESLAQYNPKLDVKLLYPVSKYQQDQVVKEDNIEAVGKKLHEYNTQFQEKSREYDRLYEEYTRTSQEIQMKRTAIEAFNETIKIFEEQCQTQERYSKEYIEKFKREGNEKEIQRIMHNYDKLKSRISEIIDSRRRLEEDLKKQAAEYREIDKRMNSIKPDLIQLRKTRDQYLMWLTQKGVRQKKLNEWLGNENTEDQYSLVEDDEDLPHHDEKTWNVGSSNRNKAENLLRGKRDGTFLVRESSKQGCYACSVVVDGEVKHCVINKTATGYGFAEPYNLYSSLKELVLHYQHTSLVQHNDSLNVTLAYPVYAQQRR

As to `Cc1cc(C(C)Nc2ccccc2C(=O)O)c2oc(-c3ccc4c(cnn4C)n3)cc(=O)c2c1` (single isomer, unassigned) [Example 164, 2-[1-[6-Methyl-2-(1-methylpyrazolo[4,3-b]pyridin-5-yl)-4-oxo-chromen-8-yl]ethylamino]benzoic acid], the figures for the pIC50 in assay [1] and in assay [2] were above 6.30 and 5.30 to 6.00, respectively.

Consider `Cc1c(-c2ccc3nn(C)cc3c2)oc2c(C(C)Nc3ccccc3C(=O)O)cc(F)cc2c1=O` (single isomer, unassigned) [Example 148, 2-[1-[6-Fluoro-3-methyl-2-(2-methylindazol-5-yl)-4-oxo-chromen-8-yl]ethylamino]benzoic acid], for which the pIC50 was above 6.30 in assay [1] and 6.00 to 6.30 in assay [2].

As for `Cc1cc(C(C)Nc2ccccc2C(=O)O)c2oc(-c3ccc4c(c3)CC(=O)N4C)cc(=O)c2c1` (single isomer, unassigned) [Example 62, 2-[1-[6-Methyl-2-(1-methyl-2-oxo-indolin-5-yl)-4-oxo-chromen-8-yl]ethylamino]benzoic acid], the pIC50 is above 6.30 in assay [1] and 5.30 to 6.00 in assay [2].

Take `Cc1cc(C(C)Nc2ccccc2C(=O)O)c2oc(-c3c4ccccc4nn3C)cc(=O)c2c1` (single isomer, unassigned) [Example 119, 2-[1-[6-Methyl-2-(2-methylindazol-3-yl)-4-oxo-chromen-8-yl]ethylamino]benzoic acid]: the pIC50 in assay [1] and in assay [2] was 5.30 to 6.00 throughout.

Turning to `Cc1cc(C(C)Nc2ccccc2C(=O)O)c2oc(-c3nn(C)c4ccccc34)cc(=O)c2c1` (single isomer, unassigned) [Example 23, 2-[1-[6-Methyl-2-(1-methylindazol-3-yl)-4-oxo-chromen-8-yl]ethylamino]benzoic acid], the negative-log IC50 (pIC50) was above 6.30 in assay [1] and 6.00 to 6.30 in assay [2].

For `Cc1cc(C(C)Nc2ccccc2C(=O)O)c2oc(-c3ccc4nnc(C(F)(F)F)n4c3)cc(=O)c2c1` (single isomer, unassigned) [Example 162, 2-[1-[6-Methyl-4-oxo-2-[3-(trifluoromethyl)-[1,2,4]triazolo[4,3-a]pyridin-6-yl]chromen-8-yl]ethylamino]benzoic acid], the pIC50 was 6.00 to 6.30 in assay [1] and below 5.00 in assay [2].

In the case of `Cc1cc(C(C)Nc2ccccc2C(=O)O)c2oc(-c3ccc4c(C#N)nn(C)c4c3)cc(=O)c2c1` (single isomer, unassigned) [Example 104, 2-[1-[2-(3-Cyano-1-methyl-indazol-6-yl)-6-methyl-4-oxo-chromen-8-yl]ethylamino]benzoic acid], the values for the negative logarithm of the IC50 (pIC50) in assay [1] and in assay [2] were above 6.30 and 5.30 to 6.00, respectively.

`Cc1cc(C(C)Nc2ccccc2C(=O)O)c2oc(-c3cnc4cn(C)nc4c3)cc(=O)c2c1` (single isomer, unassigned) [Example 43, 2-[1-[6-Methyl-2-(2-methylpyrazolo[4,3-b]pyridin-6-yl)-4-oxo-chromen-8-yl]ethylamino]benzoic acid]: the negative logarithm of the IC50 (pIC50) in assay [1] and in assay [2] was below 5.00 each time.

Regarding `Cc1cc(C(C)Nc2ccccc2C(=O)O)c2oc(-c3ccc4c(C)n[nH]c4c3)cc(=O)c2c1` (single isomer, unassigned) [Example 28, 2-[1-[6-Methyl-2-(3-methyl-1H-indazol-6-yl)-4-oxo-chromen-8-yl]ethylamino]benzoic acid], the values for the negative logarithm of the IC50 (pIC50) in assay [1] and in assay [2] were above 6.30 and 5.30 to 6.00, respectively.

For `Cc1cn2nc(-c3cc(=O)c4cc(C(F)(F)F)cc(C(C)Nc5ccc(Cl)nc5C(=O)O)c4o3)ccc2n1` (single isomer, unassigned) [Example 102, 6-Chloro-3-[1-[2-(2-methylimidazo[1,2-b]pyridazin-6-yl)-4-oxo-6-(trifluoromethyl)chromen-8-yl]ethylamino]pyridine-2-carboxylic acid], the results for the pIC50 in assay [1] and in assay [2] were above 6.30 and 5.30 to 6.00, respectively.

For the molecule `Cc1cc(C(C)Nc2ccc(F)c(F)c2C(=O)O)c2oc(-c3ccc4nc(C)cn4n3)cc(=O)c2c1` (stereo not shown) [Example 94, 2,3-Difluoro-6-[1-[6-methyl-2-(2-methylimidazo[1,2-b]pyridazin-6-yl)-4-oxo-chromen-8-yl]ethylamino]benzoic acid], the figures for the pIC50 in assay [1] and in assay [2] were 5.30 to 6.00 and below 5.00, respectively.

As for `Cc1cc(C(C)Nc2ccccc2C(=O)O)c2oc(-c3ccc4cc[nH]c4n3)cc(=O)c2c1` (stereo not shown) [Example 14, 2-[1-[6-Methyl-4-oxo-2-(1H-pyrrolo[2,3-b]pyridin-6-yl)chromen-8-yl]ethylamino]benzoic acid], the pIC50 in assay [1] is above 6.30; in assay [2], 5.30 to 6.00.

Take `Cc1ccc2c(cnn2-c2cc(=O)c3cc(C)cc(C(C)Nc4ccccc4C(=O)O)c3o2)c1` (single isomer, unassigned) [Example 87, 2-[1-[6-Methyl-2-(5-methylindazol-1-yl)-4-oxo-chromen-8-yl]ethylamino]benzoic acid]: the values for the pIC50 in assay [1] and in assay [2] were above 6.30 and 5.30 to 6.00, respectively.

For the molecule `Cc1cc([C@@H](C)Nc2ccc(C)nc2C(=O)O)c2oc(-c3ccc4nn(C)cc4c3)c(C)c(=O)c2c1` [Example 200, 3-[[(1R)-1-[3,6-Dimethyl-2-(2-methylindazol-5-yl)-4-oxo-chromen-8-yl]ethyl]amino]-6-methyl-pyridine-2-carboxylic acid], the figures for the pIC50 in assay [1] and in assay [2] were above 6.30 and 6.00 to 6.30, respectively.

Take `Cc1cc(C(C)Nc2ccccc2C(=O)O)c2oc(-c3cnc4sc(C)nc4c3)cc(=O)c2c1` (single isomer, unassigned) [Example 81, 2-[1-[6-Methyl-2-(2-methylthiazolo[5,4-b]pyridin-6-yl)-4-oxo-chromen-8-yl]ethylamino]benzoic acid]: the figures for the pIC50 in assay [1] and in assay [2] were above 6.30 and 5.30 to 6.00, respectively.

Regarding `Cc1cc(C(C)Nc2ccccc2C(=O)O)c2oc(-c3ccc4ccnn4c3)c(C)c(=O)c2c1` (single isomer, unassigned) [Example 157, 2-[1-(3,6-Dimethyl-4-oxo-2-pyrazolo[1,5-a]pyridin-6-yl-chromen-8-yl)ethylamino]benzoic acid], the figures for the pIC50 in assay [1] and in assay [2] were above 6.30 and 5.30 to 6.00, respectively.

For the molecule `Cc1cc(C(C)Nc2ccccc2C(=O)O)c2oc(-c3ccc4nnc(C(C)C)n4c3)cc(=O)c2c1` (single isomer, unassigned) [Example 78, 2-[1-[2-(3-Isopropyl-[1,2,4]triazolo[4,3-a]pyridin-6-yl)-6-methyl-4-oxo-chromen-8-yl]ethylamino]benzoic acid], the pIC50 in assay [1] is 5.30 to 6.00; in assay [2], below 5.00.

Take `Cc1cc(C(C)Nc2ccccc2C(=O)O)c2oc(-c3ccc4c(cnn4C)n3)cc(=O)c2c1` (single isomer, unassigned) [Example 53, 2-[1-[6-Methyl-2-(1-methylpyrazolo[4,3-b]pyridin-5-yl)-4-oxo-chromen-8-yl]ethylamino]benzoic acid]: the pIC50 in assay [1] was above 6.30; in assay [2] it was 5.30 to 6.00.

As for `Cc1cc(C(C)Nc2ccccc2C(=O)O)c2oc(-c3ccn4ccnc4c3)cc(=O)c2c1` (single isomer, unassigned) [Example 80, 2-[1-(2-Imidazo[1,2-a]pyridin-7-yl-6-methyl-4-oxo-chromen-8-yl)ethylamino]benzoic acid], the pIC50 was above 6.30 in assay [1] and 5.30 to 6.00 in assay [2].

For the molecule `Cc1cc(C(C)Nc2ccc(Cl)nc2C(=O)O)c2oc(-c3ccc4nn(C)cc4c3)c(C)c(=O)c2c1` (single isomer, unassigned) [Example 181, 6-Chloro-3-[1-[3,6-dimethyl-2-(2-methylindazol-5-yl)-4-oxo-chromen-8-yl]ethylamino]pyridine-2-carboxylic acid], the pIC50 in assay [1] and in assay [2] was above 6.30 each time.
